Reference: PubChem BioAssay (NCI)
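Following 48 hours of exposure in 96-well plates, responses at five concentrations were used to interpolate endpoints linearly. GI50 marks 50% less growth. TGI marks complete inhibition of growth.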

How the values were obtained:
Assay in all cases: DTP human tumour cell line panel, 48 h
[1] = tested on: UACC-62 melanoma
[2] = tested on: HCT-15 colon
[3] = tested on: A549 NSCLC
[4] = tested on: UACC-257 melanoma
[5] = tested on: KM12 colon
[6] = tested on: SR leukemia
[7] = tested on: HCC-2998 colon
[8] = tested on: SN12C renal
[9] = tested on: SF-268 CNS
[10] = tested on: M14 melanoma

Row | Structure (SMILES) | GI50 [1] [µM] | TGI [1] [µM] | GI50 [2] [µM] | TGI [2] [µM] | GI50 [3] [µM] | TGI [3] [µM] | GI50 [4] [µM] | TGI [4] [µM] | GI50 [5] [µM] | TGI [5] [µM] | GI50 [6] [µM] | TGI [6] [µM] | GI50 [7] [µM] | TGI [7] [µM] | GI50 [8] [µM] | TGI [8] [µM] | GI50 [9] [µM] | TGI [9] [µM] | GI50 [10] [µM] | TGI [10] [µM]
1 | COc1cc2c3c(n(CCCCOC(=O)C(F)(F)F)c(=O)c2cc1OC)-c1cc2c(cc1C3=O)OCO2 | > 100 | > 100 | > 100 | > 100 | > 100 | > 100 | > 100 | > 100 | > 100 | > 100 | 0.589 | 13.4 | > 100 | > 100 | > 93.9 | > 100 | > 100 | > 100 | – | –
2 | CC1=CC(=NC(=O)CBr)C=C/C1=N\S(=O)(=O)c1ccccc1 | 2.58 | 10.7 | 1.99 | 4.67 | 13.9 | 34.8 | – | – | 16.8 | 31.2 | 3.41 | 18.6 | 16.5 | 31.3 | 1.83 | 3.59 | 3.69 | 13.7 | 3.26 | 13.9
3 | COc1cc2nc3sc(C(=O)Nc4ccc(C(=O)OC(C)C)cc4)c(C(=O)Nc4ccc(Cl)cc4C)n3c(=O)c2cc1OC | 6.8 | 91.8 | 17.3 | > 100 | 0.824 | > 100 | 18.4 | 93.2 | 1.29 | 13.3 | 3.05 | 14.1 | 9.5 | > 100 | 22.8 | 71.1 | 9.45 | 43.3 | – | –
4 | CCOC12OC3=C(CC1CC1=C(CCC1=O)O2)C(=O)CC3 (stereo not drawn) | – | > 100 | – | > 100 | – | > 100 | – | > 100 | – | > 100 | – | > 100 | – | – | – | > 100 | – | > 100 | – | > 100
5 | Cc1cc2c(cc1Cl)SC1=CC(=O)N(c3ccccc3)C1=NS2(=O)=O | 33 | > 100 | > 100 | > 100 | > 100 | > 100 | 51.5 | > 100 | 26.1 | 67.3 | – | – | – | – | 32 | > 100 | 92.3 | > 100 | 21 | 42.8
6 | CC(C)=CCC[C@H](C)[C@@H]1CC[C@]2(C)C3CC[C@]4(OC4(C)C)C(CCCO)[C@]3(C)CC[C@@]12C (stereo partly drawn) | 13.6 | 30.4 | 26.5 | > 100 | 37.7 | > 100 | 24.1 | 59.9 | 22.5 | 59.5 | 11.2 | 28.1 | 7.75 | 22.5 | – | – | 17.8 | 36 | 32.1 | > 100
7 | Oc1ccccc1-c1nn(CNc2cccc(Cl)c2)c(=S)o1 | 41.5 | > 100 | – | – | 74.8 | > 100 | > 100 | > 100 | 37.2 | > 100 | 15.1 | 49.4 | – | – | > 100 | > 100 | 59.4 | > 100 | 35.8 | > 100
